The values below come from patent publication US12404283B2, “c-MYC mRNA translation modulators and uses thereof in the treatment of cancer” (Anima Biotech Inc., priority 2022, dated 2025).

SMILES strings stand for the structures.

The subject of the experiment is c-Myc. The experiment is described as follows: c-Myc immunofluorescence assay. The class given is cell-based, human. The settings on record: A549 cells, 24 hours treatment, anti-c-Myc immunofluorescence. Summed up:
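A549 cells grown 48 h, exposed 24 h to rising compound concentrations, then fixed, permeabilised and stained for c-Myc plus DAPI. Nuclear-segmented c-Myc fluorescence quantified by high-content imaging at 20×; EC50 from logistic dose–response fits.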

For the compound `NCc1ccc(-c2cn3c(n2)sc2cc(C(=O)NCCCN4CCCCC4)ccc23)c(C(F)(F)F)c1` [compound 372, 2-(4-(aminomethyl)-2-(trifluoromethyl)phenyl)-N-(3-(piperidin-1-yl)propyl)benzo[d]imidazo [2,1-b]thiazole-7-carboxamide], the “Myc Efficacy (−LogEC50)” value was “++ (++ ≥5 and <6)”.

On to `O=C(NCCCN1CCCCC1)c1ccc2c(c1)sc1nc(-c3ccc(C4CCCN4)cc3)cn12` (centres unmarked) [compound 373, N-(3-(piperidin-1-yl)propyl)-2-(4-(pyrrolidin-2-yl)phenyl)benzo[d]imidazo [2,1-b]thiazole-7-carboxamide], for which the “Myc Efficacy (−LogEC50)” value is listed as “+++ (+++ ≥6)”.

`NCc1ccc(-c2cn3c(n2)sc2cc(C(=O)NCCCN4CCCCC4)ccc23)c(F)c1` [compound 374, 2-(4-(aminomethyl)-2-fluorophenyl)-N-(3-(piperidin-1-yl)propyl)benzo[d]imidazo [2,1-b]thiazole-7-carboxamide]: the “Myc Efficacy (−LogEC50)” value is on record as “+++ (+++ ≥6)”.

For the compound `NCc1ccc(-c2cn3c(n2)sc2cc(C(=O)NCCCN4CCCCC4)ccc23)cc1F` [compound 375, 2-(4-(aminomethyl)-3-fluorophenyl)-N-(3-(piperidin-1-yl)propyl)benzo[d]imidazo [2,1-b]thiazole-7-carboxamide], the “Myc Efficacy (−LogEC50)” value is on record as “+++ (+++ ≥6)”.

Turning to `NCc1ccc(-c2cn3c(n2)sc2cc(C(=O)NCCCN4CCCCC4)ccc23)cc1Cl` [compound 376, 2-(4-(aminomethyl)-3-chlorophenyl)-N-(3-(piperidin-1-yl)propyl)benzo[d]imidazo [2,1-b]thiazole-7-carboxamide], the “Myc Efficacy (−LogEC50)” value is “+++ (+++ ≥6)”.

For the compound `NCc1ccc(-c2cn3c(n2)sc2cc(C(=O)NCCCN4CCCCC4)ccc23)cc1C(F)(F)F` [compound 378, 2-(4-(aminomethyl)-3-(trifluoromethyl)phenyl)-N-(3-(piperidin-1-yl)propyl)benzo[d]imidazo [2,1-b]thiazole-7-carboxamide], the “Myc Efficacy (−LogEC50)” value was “+++ (+++ ≥6)”.

On to `NCc1ccc(-c2cn3c(n2)sc2cc(C(=O)NCCCN4CCCCC4)ccc23)cc1C(F)F` [compound 379, 2-(4-(aminomethyl)-3-(difluoromethyl)phenyl)-N-(3-(piperidin-1-yl)propyl)benzo[d]imidazo [2,1-b]thiazole-7-carboxamide], for which the “Myc Efficacy (−LogEC50)” value is reported as “+++ (+++ ≥6)”.

Take `Cc1cc(-c2cn3c(n2)sc2cc(C(=O)NCCCN4CCCCC4)ccc23)ccc1CN` [compound 381, 2-(4-(aminomethyl)-3-methylphenyl)-N-(3-(piperidin-1-yl)propyl)benzo[d]imidazo [2,1-b]thiazole-7-carboxamide]: the “Myc Efficacy (−LogEC50)” value is “+++ (+++ ≥6)”.

As to `NCc1c(F)cc(-c2cn3c(n2)sc2cc(C(=O)NCCCN4CCCCC4)ccc23)cc1F` [compound 383, 2-(4-(aminomethyl)-3,5-difluorophenyl)-N-(3-(piperidin-1-yl)propyl)benzo[d]imidazo [2,1-b]thiazole-7-carboxamide], the “Myc Efficacy (−LogEC50)” value is “++ (++ ≥5 and <6)”.

With `NCc1c(F)cc(-c2cn3c(n2)sc2cc(C(=O)NCCCN4CCCCC4)ccc23)cc1Cl` [compound 384, 2-(4-(aminomethyl)-3-chloro-5-fluorophenyl)-N-(3-(piperidin-1-yl)propyl)benzo[d]imidazo [2,1-b]thiazole-7-carboxamide], the “Myc Efficacy (−LogEC50)” value was “++ (++ ≥5 and <6)”.

As to `CNC(=O)c1ccc(-c2nc3sc4cc(C(=O)NCCCN5CCCCC5)ccc4n3n2)c(F)c1` [compound 386, 2-(2-fluoro-4-(methylcarbamoyl)phenyl)-N-(3-(piperidin-1-yl)propyl)benzo[4,5]thiazolo [3,2-b][1,2,4]triazole-6-carboxamide], the “Myc Efficacy (−LogEC50)” value is “+++ (+++ ≥6)”.

On to `NCc1ccc(-c2nc3sc4cc(C(=O)NCCCN5CCCCC5)ccc4n3n2)c(F)c1` [compound 387, 2-(4-(aminomethyl)-2-fluorophenyl)-N-(3-(piperidin-1-yl)propyl)benzo[4,5]thiazolo [3,2-b][1,2,4]triazole-6-carboxamide], for which the “Myc Efficacy (−LogEC50)” value is “+++ (+++ ≥6)”.

Consider `CCN(CC)CCCNC(=O)c1ccc2c(c1)sc1nc(-c3ccc(CN)cc3F)nn12` [compound 388, 2-(4-(aminomethyl)-2-fluorophenyl)-N-(3-(diethylamino)propyl) benzo[4,5]thiazolo[3,2-b][1,2,4]triazole-6-carboxamide], for which the “Myc Efficacy (−LogEC50)” value is “++ (++ ≥5 and <6)”.

`CNC(=O)c1ccc(-c2nc3sc4cc(C(=O)NCCCN5CCC(F)CC5)ccc4n3n2)c(F)c1` [compound 389, 2-(2-fluoro-4-(methylcarbamoyl)phenyl)-N-(3-(4-fluoropiperidin-1-yl)propyl)benzo[4,5]thiazolo [3,2-b][1,2,4]triazole-6-carboxamide]: the “Myc Efficacy (−LogEC50)” value is “++ (++ ≥5 and <6)”.

Regarding `NCc1ccc(-c2nc3sc4cc(C(=O)NCCCN5CCC(F)CC5)ccc4n3n2)c(F)c1` [compound 390, 2-(4-(aminomethyl)-2-fluorophenyl)-N-(3-(4-fluoropiperidin-1-yl)propyl)benzo[4,5]thiazolo [3,2-b][1,2,4]triazole-6-carboxamide], the “Myc Efficacy (−LogEC50)” value is “++ (++ ≥5 and <6)”.

With `NCc1ccc(-c2nc3sc4cc(C(=O)NCCCN5CCCCC5)ccc4n3n2)cc1` [compound 392, 2-(4-(aminomethyl)phenyl)-N-(3-(piperidin-1-yl)propyl)benzo[4,5]thiazolo [3,2-b][1,2,4]triazole-6-carboxamide], the “Myc Efficacy (−LogEC50)” value is “+++ (+++ ≥6)”.

For `O=C(NCCCN1CCCCC1)c1ccc2c(c1)sc1nc(-c3ccc(CNC4CC4)cc3)nn12` [compound 393, 2-(4-((cyclopropylamino)methyl)phenyl)-N-(3-(piperidin-1-yl)propyl)benzo[4,5]thiazolo [3,2-b][1,2,4]triazole-6-carboxamide], the “Myc Efficacy (−LogEC50)” value is listed as “+++ (+++ ≥6)”.

On to `CCN(CC)CCCNC(=O)c1ccc2c(c1)sc1nc(-c3ccc(CNC4CC4)cc3)nn12` [compound 394, 2-(4-((cyclopropylamino)methyl)phenyl)-N-(3-(diethylamino)propyl)benzo [4,5]thiazolo[3,2-b][1,2,4]triazole-6-carboxamide], for which the “Myc Efficacy (−LogEC50)” value is “++ (++ ≥5 and <6)”.

For the compound `CCN(CC)CCCNC(=O)c1ccc2c(c1)sc1nc(-c3ccc(CNC4CC4)cc3F)nn12` [compound 395, 2-(4-((cyclopropylamino)methyl)-2-fluorophenyl)-N-(3-(diethylamino)propyl)benzo [4,5]thiazolo[3,2-b][1,2,4]triazole-6-carboxamide], the “Myc Efficacy (−LogEC50)” value is “++ (++ ≥5 and <6)”.

`O=C(NCCCN1CCCCC1)c1ccc2c(c1)sc1nc(-c3ccc(CNC4CC4)cc3F)nn12` [compound 396, 2-(4-((cyclopropylamino)methyl)-2-fluorophenyl)-N-(3-(piperidin-1-yl)propyl)benzo[4,5]thiazolo [3,2-b][1,2,4]triazole-6-carboxamide]: the “Myc Efficacy (−LogEC50)” value is “++ (++ ≥5 and <6)”.

Regarding `CCN(CC)CCCNC(=O)c1ccc2c(c1)sc1nc(-c3ccc(C4(N)CC4)cc3)nn12` [compound 397, 2-(4-(1-aminocyclopropyl)phenyl)-N-(3-(diethylamino)propyl)benzo [4,5]thiazolo[3,2-b][1,2,4]triazole-6-carboxamide], the “Myc Efficacy (−LogEC50)” value was “++ (++ ≥5 and <6)”.

In the case of `NC1(c2ccc(-c3nc4sc5cc(C(=O)NCCCN6CCCCC6)ccc5n4n3)cc2)CC1` [compound 398, 2-(4-(1-aminocyclopropyl)phenyl)-N-(3-(piperidin-1-yl)propyl)benzo[4,5]thiazolo [3,2-b][1,2,4]triazole-6-carboxamide], the “Myc Efficacy (−LogEC50)” value was “++ (++ ≥5 and <6)”.

As to `CNC(=O)c1ccc(-c2cn3c(n2)sc2cc(C(=O)NCCCN4CCCCC4)ncc23)cc1` [compound 406, 2-(4-(methylcarbamoyl)phenyl)-N-(3-(piperidin-1-yl)propyl)imidazo[2′,1′:2,3] thiazolo[4,5-c]pyridine-7-carboxamide], the “Myc Efficacy (−LogEC50)” value was “++ (++ ≥5 and <6)”.

As to `O=C(NCCCN1CCCCC1)c1ccc2c(c1)sc1nc(-c3ccc([C@H]4CCCN4)cc3)cn12` [compound 412, (R)-N-(3-(piperidin-1-yl)propyl)-2-(4-(pyrrolidin-2-yl)phenyl)benzo[d]imidazo [2,1-b]thiazole-7-carboxamide], the “Myc Efficacy (−LogEC50)” value was “+++ (+++ ≥6)”.

In the case of `O=C(NCCCN1CCCCC1)c1ccc2c(c1)sc1nc(-c3ccc([C@@H]4CCCN4)cc3)cn12` [compound 413, (S)-N-(3-(piperidin-1-yl)propyl)-2-(4-(pyrrolidin-2-yl)phenyl)benzo[d]imidazo [2,1-b]thiazole-7-carboxamide], the “Myc Efficacy (−LogEC50)” value is reported as “+++ (+++ ≥6)”.

As to `CCN(CC)CCCNC(=O)c1ccc2c(c1)sc1nc(-c3ccc([C@H]4CCCN4)cc3)cn12` [compound 414, (R)-N-(3-(diethylamino)propyl)-2-(4-(pyrrolidin-2-yl)phenyl)benzo[d]imidazo [2,1-b]thiazole-7-carboxamide], the “Myc Efficacy (−LogEC50)” value is given as “+++ (+++ ≥6)”.

Consider `CCN(CC)CCCNC(=O)c1ccc2c(c1)sc1nc(-c3ccc([C@@H]4CCCN4)cc3)cn12` [compound 415, (S)-N-(3-(diethylamino)propyl)-2-(4-(pyrrolidin-2-yl)phenyl)benzo[d]imidazo [2,1-b]thiazole-7-carboxamide], for which the “Myc Efficacy (−LogEC50)” value is recorded as “+++ (+++ ≥6)”.

With `O=C(NCCCN1CCCCC1)c1ccc2c(c1)sc1nc(-c3ccc(C4CCCN4)cc3F)cn12` (centres unmarked) [compound 416, 2-(2-fluoro-4-(pyrrolidin-2-yl)phenyl)-N-(3-(piperidin-1-yl)propyl)benzo[d]imidazo [2,1-b]thiazole-7-carboxamide], the “Myc Efficacy (−LogEC50)” value is “+++ (+++ ≥6)”.

Turning to `O=C(NCCCN1CCCCC1)c1ccc2c(c1)sc1nc(-c3ccc([C@H]4CCCN4)cc3F)cn12` [compound 417, (R)-2-(2-fluoro-4-(pyrrolidin-2-yl)phenyl)-N-(3-(piperidin-1-yl)propyl)benzo[d]imidazo [2,1-b]thiazole-7-carboxamide], the “Myc Efficacy (−LogEC50)” value is “+++ (+++ ≥6)”.
